Patent publication US5264589A, “Merocyanine protein error indicators” (Miles Inc., priority 1991, dated 1993)

Tests used:
human serum albumin = human serum albumin (Homo sapiens, UniProt P02768); test: Liquid assay for human serum albumin (increase in absorbance); settings: albumin 100 mg/dl, 200-250 mM Na+ or K+ citrate buffer
Protocol: The utility of the merocyanine protein error indicator compounds of the present invention in a liquid assay for the determination of protein levels in a liquid test sample is illustrated in Table 7 below. […] The solution was then treated with sufficient human serum albumin to make the albumin concentration 100 mg/dl and the absorbance was measured again. The reported increase in absorbance (Δ abs) is proportional to the amount of albumin present, and is indicative of the relative sensitivity of the dye for measuring protein.

[1] = pKa of the indicator compound; format: physicochemical
[2] = target: T1, human serum albumin (HSA) (Homo sapiens, UniProt P02768); test: Dose response of reagent strips including SPDIB (K/S reflectance, Clinitek 200); settings: analytical test strips including 0.3 mM SPDIB; 50 mM potassium citrate, pH 2.5; K/S at 25 seconds; FIG. 7
T1 construct: purchased Miles, Inc., Elkhart, Ind; (Pentex)
T1 sequence (P02768 25-609): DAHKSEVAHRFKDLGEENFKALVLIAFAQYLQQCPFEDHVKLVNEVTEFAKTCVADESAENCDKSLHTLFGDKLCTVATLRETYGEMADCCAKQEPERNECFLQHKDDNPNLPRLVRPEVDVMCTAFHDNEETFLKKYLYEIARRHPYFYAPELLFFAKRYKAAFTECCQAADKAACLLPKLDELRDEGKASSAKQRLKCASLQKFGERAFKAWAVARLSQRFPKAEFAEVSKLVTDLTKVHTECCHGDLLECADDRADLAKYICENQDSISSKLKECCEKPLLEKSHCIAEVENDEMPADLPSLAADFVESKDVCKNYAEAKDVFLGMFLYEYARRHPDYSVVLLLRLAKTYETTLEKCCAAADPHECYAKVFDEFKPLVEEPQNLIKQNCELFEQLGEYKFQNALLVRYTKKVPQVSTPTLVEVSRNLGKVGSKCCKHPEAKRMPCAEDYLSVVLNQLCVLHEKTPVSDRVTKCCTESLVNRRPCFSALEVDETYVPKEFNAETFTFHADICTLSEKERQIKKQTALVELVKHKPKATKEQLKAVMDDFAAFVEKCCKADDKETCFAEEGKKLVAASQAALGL
Protocol: A buffered liquid sample (50 mM potassium citrate, pH 2.5) which was shown by immunoassay to be devoid of albumin, was spiked to various clinically significant levels with Pentex® human serum albumin (HSA) (Miles, Inc., Elkhart, Ind.). Using a Clinitek 200® Instrument (Miles, Inc., Elkhart, Ind.) protein measurements were made using analytical test strips including 0.3 mM SPDIB.
Resolution was quantitatively expressed in delta K/S between albumin levels, as shown FIG. 7. K/S are calculated from the formula: [formula] wherein R is the fraction of reflectance from the test device, K is a constant, and S is the light scattering coefficient of the particular reflecting medium. The above equation is a simplified form of the well-known Kubelka-Munk equation (See Gustav Kortum, "Reflectance Spectroscopy," pp. 106-11, Springer Verlas, New York (1969). K/S was determined at 25 seconds.

human serum albumin, sequence (P02768 25-609): as above

Structure (SMILES): CC1(C)C(C=Cc2cc(Br)c(O)c(Br)c2)=[N+](CCCS(=O)(=O)[O-])c2ccccc21 [Compound A, 1-(ω-sulfopropyl)-2-(4'hydroxy-3',5'-dibromostyryl)-3,3-dimethylindoleninium betaine]
- ΔABS (increase in absorbance) (human serum albumin; compound conc. 1.0 × 10^-5 M, assay pH 3.0, λ 522 nm): 0.156
- COMPD. pKa [1]: 3.59

Structure (SMILES): CC1(C)C(C=Cc2cc(I)c(O)c(I)c2)=[N+](CCS(=O)(=O)[O-])c2ccccc21 [Compound C, 1-(ω-sulfoethyl)-2-(4'-hydroxy-3',5'-diiodostyryl)-3,3-dimethylindoleninium betaine]
- ΔABS (increase in absorbance) (human serum albumin; compound conc. 1.5 × 10^-5 M, assay pH 3.0, λ 543 nm): 0.255
- COMPD. pKa [1]: 3.65

Structure (SMILES): O=S(=O)([O-])CCCC[n+]1c(C=Cc2cc(I)c(O)c(I)c2)sc2ccccc21 [Compound B, 1-(ω-sulfobutyl)-2-(4'-hydroxy-3',5'-diiodostyryl)-benzothiazolium betaine]
- ΔABS (increase in absorbance) (human serum albumin; compound conc. 2.5 × 10^-5 M, assay pH 3.5, λ 506 nm): 0.027
- COMPD. pKa [1]: 4.35

Structure (SMILES): CC1(C)C(C=Cc2cc(I)c(O)c(I)c2)=[N+](CCCS(=O)(=O)[O-])c2ccccc21 [Compound D, 1-(ω-sulfopropyl)-2-(4'-hydroxy-3'-5'-diiodostyryl)-3,3-dimethylindoleninium betaine]
- ΔABS (increase in absorbance) (human serum albumin; compound conc. 2.0 × 10^-5 M, assay pH 3.0, λ 541 nm): 0.402
- COMPD. pKa [1]: 3.65
- resolution between protein levels (delta K/S) [2]: significant resolution between protein levels
- response of the strip to different levels of protein [2]: sensitive to a wide range of protein concentrations

Structure (SMILES): CC1(C)C(C=Cc2cc(I)c(O)c(I)c2)=[N+](CCCCS(=O)(=O)[O-])c2ccccc21 [Compound E, 1-(ω-sulfobutyl)-2-(4'-hydroxy-3',5'-diiodostyryl)-3,3-dimethylindoleninium betaine]
- ΔABS (increase in absorbance) (human serum albumin; compound conc. 1.8 × 10^-5 M, assay pH 3.0, λ 535 nm): 0.322
- COMPD. pKa [1]: 3.52
